Laboratory results published in ChEMBL document CHEMBL1201862, “PubChem BioAssay data set” (2004).
Activity calls are given as the source filed them. For most assays here, no stated cut-off is given here; in the data, actives have a measured EC50 and inactives only a lower limit.

Key:
[1] = system: BJ; assay: cytotoxicity toward BJ-TERT-LT-ST fibroblasts, dose response, cell-based, RAS-independent, luminescence (AID 1935); format: functional; details: Homo sapiens;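 further: BJ fibroblasts immortalized with TERT plus LT and ST oncogenes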
[2] = cytotoxicity toward DRD oncogenic fibroblasts, dose response, cell-based, non-viral oncogenic, luminescence (AID 1934); format: functional; details: Homo sapiens
[3] = system: BJ; assay: cells; format: functional, cell-based; details: Homo sapiens
[4] = system: BJ; assay: cytotoxicity toward BJ-TERT fibroblasts, dose response, cell-based, RAS-independent, luminescence (AID 1933); format: functional; details: Homo sapiens
[5] = system: INS1; assay: beta cell apoptosis inhibitors, cytokine rescue, dose response, luminescence, retest (AID 449756); format: functional, cell-based; details: Rattus norvegicus;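 further: cell death triggered by IL-1 beta plus TNF-alpha plus IFN-gamma mixture; protective hits raise ATP signal compared with cytokine alone wells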
[6] = target: T1, Calpain-2 catalytic subunit (Sus scrofa, UniProt P43367); assay: pig calpain II inhibitor potency, dose response, biochemical, fluorogenic peptide substrate (AID 1420); format: functional
T1 sequence (P43367 whole entry): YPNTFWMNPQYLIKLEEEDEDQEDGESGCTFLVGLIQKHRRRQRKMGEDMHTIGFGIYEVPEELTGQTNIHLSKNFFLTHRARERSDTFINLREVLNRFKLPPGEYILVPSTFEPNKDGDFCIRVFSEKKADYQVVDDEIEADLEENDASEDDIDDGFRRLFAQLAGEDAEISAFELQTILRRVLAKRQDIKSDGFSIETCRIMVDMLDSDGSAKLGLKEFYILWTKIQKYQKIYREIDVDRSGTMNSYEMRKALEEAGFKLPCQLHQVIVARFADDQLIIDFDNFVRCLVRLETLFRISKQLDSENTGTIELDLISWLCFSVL

[7] = target: Cytochrome P450 2C9 (Homo sapiens, UniProt P11712)
Cytochrome P450 2C9, sequence (P11712 whole entry): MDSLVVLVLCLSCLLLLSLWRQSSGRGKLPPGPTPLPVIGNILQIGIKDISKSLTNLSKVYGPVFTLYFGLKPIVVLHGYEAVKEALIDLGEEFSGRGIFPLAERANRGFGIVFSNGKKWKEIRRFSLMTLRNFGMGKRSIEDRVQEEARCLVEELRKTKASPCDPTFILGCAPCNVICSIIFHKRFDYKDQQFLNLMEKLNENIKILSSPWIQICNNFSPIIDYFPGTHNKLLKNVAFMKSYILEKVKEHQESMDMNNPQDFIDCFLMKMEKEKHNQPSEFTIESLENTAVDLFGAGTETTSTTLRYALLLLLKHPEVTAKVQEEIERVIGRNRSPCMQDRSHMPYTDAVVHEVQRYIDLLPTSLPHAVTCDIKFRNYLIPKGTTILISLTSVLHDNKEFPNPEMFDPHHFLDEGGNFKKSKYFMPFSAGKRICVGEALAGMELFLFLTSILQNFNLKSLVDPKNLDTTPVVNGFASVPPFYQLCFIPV

[8] = target: T2, Zinc finger protein mex-5 (Caenorhabditis elegans, UniProt Q9XUB2); assay: MEX-5/TCR-2 RNA interaction inhibitors, dose response, biochemical, C. elegans, fluorescence polarization (AID 1960)
T2 sequence (Q9XUB2 whole entry): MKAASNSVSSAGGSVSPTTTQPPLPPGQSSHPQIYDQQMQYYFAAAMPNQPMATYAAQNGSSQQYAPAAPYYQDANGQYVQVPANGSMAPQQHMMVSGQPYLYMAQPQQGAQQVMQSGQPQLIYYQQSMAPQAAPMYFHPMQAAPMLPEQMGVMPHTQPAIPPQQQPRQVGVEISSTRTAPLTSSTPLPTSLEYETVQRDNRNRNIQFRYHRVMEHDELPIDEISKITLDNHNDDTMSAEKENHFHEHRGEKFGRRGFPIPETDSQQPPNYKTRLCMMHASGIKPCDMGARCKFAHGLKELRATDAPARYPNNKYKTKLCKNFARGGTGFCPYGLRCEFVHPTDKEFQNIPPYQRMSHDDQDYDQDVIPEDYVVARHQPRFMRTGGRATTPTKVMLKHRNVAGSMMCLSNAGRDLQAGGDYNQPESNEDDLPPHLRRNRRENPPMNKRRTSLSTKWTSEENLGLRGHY

[9] = target: Cytochrome P450 2D6 (Homo sapiens, UniProt P10635);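 further: CYP2D6 member of a cytochrome P450 panel assay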
Cytochrome P450 2D6, sequence (P10635 whole entry, the tested form may be a part): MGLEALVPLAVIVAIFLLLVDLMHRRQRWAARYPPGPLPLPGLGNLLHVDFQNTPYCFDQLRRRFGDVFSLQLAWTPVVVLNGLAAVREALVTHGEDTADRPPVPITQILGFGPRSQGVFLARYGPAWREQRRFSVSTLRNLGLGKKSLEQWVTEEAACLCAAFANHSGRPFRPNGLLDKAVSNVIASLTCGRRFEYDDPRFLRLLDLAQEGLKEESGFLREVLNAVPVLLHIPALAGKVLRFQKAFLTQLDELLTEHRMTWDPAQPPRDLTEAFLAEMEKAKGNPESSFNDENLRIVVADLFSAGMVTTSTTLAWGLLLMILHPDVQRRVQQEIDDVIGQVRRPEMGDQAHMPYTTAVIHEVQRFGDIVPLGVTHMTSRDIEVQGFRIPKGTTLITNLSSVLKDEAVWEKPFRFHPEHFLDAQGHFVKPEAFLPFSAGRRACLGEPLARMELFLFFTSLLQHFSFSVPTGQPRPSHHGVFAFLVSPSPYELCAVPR

[10] = target: T3, RNA-binding protein pos-1 (Caenorhabditis elegans, UniProt G5EF15); assay: inhibitors of POS-1/mex-3 RNA binding, dose response, biochemical, fluorescence polarization (AID 1964);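 further: purified POS-1 fused to maltose binding protein made in E. coli; potency of compounds blocking POS-1 binding to fluorescent RNA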
T3 sequence (G5EF15 whole entry): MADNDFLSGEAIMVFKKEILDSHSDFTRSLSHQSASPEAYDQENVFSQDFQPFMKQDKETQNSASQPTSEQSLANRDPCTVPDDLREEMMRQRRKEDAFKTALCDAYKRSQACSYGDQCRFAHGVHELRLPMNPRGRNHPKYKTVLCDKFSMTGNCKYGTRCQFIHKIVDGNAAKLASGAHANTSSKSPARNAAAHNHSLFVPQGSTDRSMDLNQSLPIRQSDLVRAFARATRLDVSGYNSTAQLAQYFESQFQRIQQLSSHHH

[11] = cells; format: functional, cell-based
[12] = cells; format: functional, cell-based; remark: listed apart in the source
[13] = target: FAD-linked sulfhydryl oxidase ALR (Homo sapiens, UniProt P55789); assay: inhibitors of human ALR sulfhydryl oxidase, dose response, biochemical, H2O2 detection, luminescence, cherry-pick (AID 493248)
FAD-linked sulfhydryl oxidase ALR, sequence (P55789 whole entry): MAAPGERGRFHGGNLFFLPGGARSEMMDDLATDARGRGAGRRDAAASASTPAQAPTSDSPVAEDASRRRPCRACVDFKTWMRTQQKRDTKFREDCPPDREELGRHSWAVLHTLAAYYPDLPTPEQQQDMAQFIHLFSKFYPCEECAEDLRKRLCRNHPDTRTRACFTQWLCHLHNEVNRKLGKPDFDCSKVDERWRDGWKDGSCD

[14] = Luminescence Cell-Based Dose Confirmation HTS to Identify Inhibitors of Platelet Dense Granule Release. [Related pubchem assays: 1663 (Primary HTS), 1678 (Summary of Project)]; format: functional
[15] = target: Luciferin 4-monooxygenase (Photinus pyralis, UniProt P08659); assay: firefly luciferase enzyme inhibitors, dose response, biochemical, luminescence (AID 1891)
Luciferin 4-monooxygenase, sequence (P08659 whole entry): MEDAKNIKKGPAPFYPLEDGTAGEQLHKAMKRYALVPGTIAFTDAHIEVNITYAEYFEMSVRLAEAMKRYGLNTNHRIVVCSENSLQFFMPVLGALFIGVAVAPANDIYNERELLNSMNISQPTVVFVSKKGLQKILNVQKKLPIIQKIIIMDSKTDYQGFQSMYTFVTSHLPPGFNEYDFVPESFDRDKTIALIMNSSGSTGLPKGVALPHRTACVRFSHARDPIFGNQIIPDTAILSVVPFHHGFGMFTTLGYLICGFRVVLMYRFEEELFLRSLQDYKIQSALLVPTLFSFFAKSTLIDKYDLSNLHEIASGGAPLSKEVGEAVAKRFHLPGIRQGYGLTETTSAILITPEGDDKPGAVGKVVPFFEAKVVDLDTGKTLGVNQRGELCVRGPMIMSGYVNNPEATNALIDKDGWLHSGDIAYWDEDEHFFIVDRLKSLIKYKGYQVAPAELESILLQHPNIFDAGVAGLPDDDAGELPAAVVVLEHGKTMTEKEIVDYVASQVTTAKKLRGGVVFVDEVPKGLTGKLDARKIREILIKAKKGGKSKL

[16] = target: T4, Ubiquitin-conjugating enzyme E2 N (Homo sapiens, UniProt P61088); format: functional;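 further: Dose-response confirmation in a TR-FRET assay detecting UBC13-driven polyubiquitin chain formation, inhibition measured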
T4 sequence (P61088 whole entry): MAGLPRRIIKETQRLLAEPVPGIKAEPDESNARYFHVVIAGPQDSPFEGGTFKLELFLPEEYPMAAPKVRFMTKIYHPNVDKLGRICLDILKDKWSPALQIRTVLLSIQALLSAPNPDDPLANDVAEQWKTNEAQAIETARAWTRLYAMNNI

[17] = cells; format: functional
[18] = inhibitors of intracellular T. cruzi replication, confirmation, NIH3T3 host cells, beta-gal luminescence (AID 2044); format: functional, cell-based;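 further: intracellular parasites grown in NIH/3T3 mouse fibroblasts as host cells; luminescent beta-galactosidase reporter signal from transgenic T. cruzi replicating inside host cells; inhibitors lower the luminescence signal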
[19] = cytotoxicity toward NIH3T3 fibroblasts, dose response, counter-screen, cell-based, ATP luminescence, mouse fibroblasts (AID 2010); format: functional;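 further: cells exposed to compound for about 90 hours before reading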
[20] = HEp-2 cell cytotoxicity, dose response, cytotoxicity control for RSV inhibitor project, HTS (AID 2410); format: functional; details: human respiratory syncytial virus
[21] = Luminescence Cell-Based Dose Retest to Confirm Inhibitors of Cancer Stem Cells. [Related pubchem assays (depositor defined):AID2717, AID2721]; format: functional; details: Homo sapiens
[22] = microbe, parasite or virus in culture; format: functional; details: Mycobacterium tuberculosis

Cc1ccc(C)c(NS(=O)(=O)c2ccc(OCC(=O)NCc3cccnc3)cc2)c1
EC50 [1]: > 150 µM (inconclusive) | EC50 [2]: > 150 µM (not active) | EC50 [3]: 18.1 µM (active) | EC50 [4]: > 150 µM (not active) | AC50 [5]: 8.78 µM (active)

CCOC(=O)c1c(N)sc(C(=O)N2CCCCCC2)c1C
IC50 [6]: > 50 µM (not active)

COC(=O)c1c(NC(=O)CC2Nc3ccccc3NC2=O)sc(C)c1C (configuration not stated)
AC50 [7]: 17.8 µM (inconclusive) | EC50 [8]: > 300 µM (inconclusive) | AC50 [9]: 25.1 µM (inconclusive) | EC50 [10]: > 300 µM (not active)

CC(C)c1cc(NC(=O)CCl)on1
EC50 [1]: > 150 µM (not active) | EC50 [2]: > 150 µM (inconclusive) | EC50 [3]: > 150 µM (not active) | EC50 [4]: > 150 µM (not active)

COc1ccc(C(=O)NCCc2nc3cc([N+](=O)[O-])ccc3n2C)cc1
EC50 [11]: > 350 µM (not active) | EC50 [12]: > 350 µM (not active)

O=C(c1ccc(C[S+]([O-])Cc2ccc(Cl)cc2)o1)N1CCN(c2ccccc2)CC1 (configuration not stated)
AC50 [13]: > 100 µM (inactive)

Cc1ccc(OCCNC(=O)CCc2nc(O)c3c4c(sc3n2)CCCC4)cc1
EC50 [11]: > 350 µM (not active) | EC50 [12]: > 350 µM (not active)

COc1ccc(N2CCN(C(=O)c3ccc(C)cc3Cl)CC2)cc1
AC50 [13]: 3.97 µM (active)

Cc1ccc(/C=C/C(=O)O)cc1S(=O)(=O)N1CCCCC1
EC50 [8]: > 300 µM (not active) | EC50 [14]: > 112 µM (not active) | EC50 [10]: > 300 µM (not active) | EC50 [15]: > 112 µM (not active)

COc1cc(NC(=O)CN2c3ccccc3CC2C)cc(OC)c1OC (configuration not stated)
AC50 [13]: 0.394 µM (active)

N#CC1=C(N)Oc2cc(N)ccc2C1c1ccc(F)cc1 (configuration not stated)
AC50 [13]: 2.78 µM (active)

Cc1ccc2c(c1)N(C(=O)CCC(=O)NCCCN1CCC(Cc3ccccc3)CC1)CCO2
IC50 [16]: > 20 µM (inactive) | AC50 [5]: 20.4 µM (active)

CCCC1=Nc2cc(C(=O)N3CCC(C(=O)OCC)CC3)ccc2Sc2ccccc21
EC50 [1]: > 150 µM (not active) | EC50 [2]: 126 µM (active) | EC50 [3]: > 150 µM (not active) | EC50 [4]: > 150 µM (not active)

COc1ccc(NC(=O)c2cccs2)cn1
EC50 [11]: > 350 µM (not active) | EC50 [12]: 48.3 µM (active)

O=C(CCN1C(=O)S/C(=C\c2ccc(F)cc2)C1=O)Nc1ccc(C(=O)O)c(O)c1
EC50 [11]: > 350 µM (not active) | IC50 [17]: 7.61 µM (active) | EC50 [12]: 3.94 µM (active)

CC1=NN2C(=N)/C(=C\c3cc(C)n(Cc4ccccc4)c3C)C(=O)N=C2S1
EC50 [11]: > 350 µM (not active) | AC50 [13]: 0.405 µM (active) | EC50 [12]: > 350 µM (not active)

CCCCOC(=O)c1ccc(N=Nc2c(O)nc(O)c(C#N)c2C)cc1
EC50 [8]: > 300 µM (inconclusive) | EC50 [14]: > 112 µM (not active) | EC50 [10]: > 300 µM (not active) | EC50 [15]: > 112 µM (not active)

COc1cc(OC)c(C2C(C#N)=C(N)OC3=C2C(=O)CC(C)C3)cc1OC (configuration not stated)
EC50 [8]: > 300 µM (not active) | EC50 [10]: > 300 µM (not active)

CCN(CC)C(=O)CSc1nnc(-c2cc(OC)cc(OC)c2)o1
IC50 [6]: > 50 µM (not active)

O=C(O)c1ccccc1-n1c2ccccc2c2ccccc21
EC50 [8]: > 300 µM (not active) | EC50 [10]: > 300 µM (not active)

Cc1ccc(C(=O)O)cc1-n1c(C)cc(C=O)c1C
EC50 [8]: > 300 µM (not active) | EC50 [10]: > 300 µM (not active)

COc1ccccc1NC(=O)c1cc(S(=O)(=O)N2CCC3(CC2)OCCO3)ccc1F
IC50 [16]: > 20 µM (inactive)

CN(C)c1ccnc(Oc2ccc(C(C)(C)C)cc2)c1C#N
IC50 [6]: 4.48 µM (not active)

CCCCc1ccc(NC(=O)C2CCN(S(C)(=O)=O)CC2)cc1
EC50 [11]: > 350 µM (not active) | EC50 [12]: > 350 µM (not active)

CC(=O)c1ccc(-c2ccc(C(=O)N3CCN(c4ccc(F)cc4)CC3)o2)cc1
IC50 [6]: 6.42 µM (not active)

Cc1[nH]c2ccccc2c1CCN(Cc1cccnc1)C(S)=Nc1cccc(F)c1
IC50 [6]: 44.4 µM (not active) | EC50 [18]: 0.698 µM (active) | EC50 [19]: > 60 µM (not active)

Cc1ccc(C(C)C)c(OCCN=C(S)Nc2cccc3ccccc23)c1
IC50 [6]: 6.63 µM (not active)

O=C(NCCCn1ccnc1)C1CCN(S(=O)(=O)c2cc([N+](=O)[O-])ccc2Cl)CC1
IC50 [16]: > 20 µM (inactive)

CCOC(=O)CSc1nc(C(C)(C)C)cc(C(F)(F)F)c1C#N
IC50 [16]: > 20 µM (inactive)

COc1ccc(-c2c(-c3ccc(C#N)cc3)oc(=O)c3cc(OC)c(OC)cc23)cc1
IC50 [16]: > 20 µM (inactive)

C/C(=N\Nc1ccc([N+](=O)[O-])cc1)c1cccc(N)c1
AC50 [13]: 0.14 µM (active) | AC50 [9]: 17.8 µM (inconclusive) | CC50 [20]: 22 µM (active)

COc1cccc(/C=N/NC(=O)c2ccc(-c3ccccc3)cc2)c1O
EC50 [11]: 166 µM (active) | AC50 [21]: 3.26 µM (active) | EC50 [12]: 56.6 µM (active) | AC50 [5]: 3.83 µM (active)

CCOCCCn1/c(=N/C(=O)c2cccs2)c(C#N)cc2c(=O)n3cccc(C)c3nc21
EC50 [8]: > 150 µM (not active) | EC50 [10]: > 300 µM (not active)

CC(=O)O/N=C1\C(=O)N(Cc2ccc(C)cc2)c2ccccc21
IC50 [6]: 15.5 µM (not active)

COc1ccc(/C=N/NC(=O)CCc2c(C)n[nH]c2C)cc1O
AC50 [13]: 3.71 µM (active)

CC(C)(O)[C@H]1O[C@H]2CC[C@@]3(C)[C@@](O)(CC[C@H]4Cc5c([nH]c6ccccc56)[C@@]43C)C2=CC1=O [PAXILLINE]
EC50 [8]: 12.3 µM (active) | EC50 [10]: 16.7 µM (active) | CC50 [22]: > 40 µM (active)
